Results published in PMC8921065, “Combination of terbium-161 with somatostatin receptor antagonists—a potential paradigm shift for the treatment of neuroendocrine neoplasms” (European Journal of Nuclear Medicine and Molecular Imaging, 2021).

Assay: in vivo
Details: mouse, iv, 0.2 nmol/mouse, total radioactivity

Measured: tissue uptake at 24 h

C[C@@H](O)[C@@H]1NC(=O)[C@H](CCCCN)NC(=O)[C@@H](Cc2ccc(NC(N)=O)cc2)NC(=O)[C@H](Cc2ccc(O)cc2)NC(=O)[C@H](NC(=O)[C@H](Cc2ccc(Cl)cc2)NC(=O)CN2CCN(CC(=O)O)CCN(CC(=O)O)CCN(CC(=O)O)CC2)CSSC[C@@H](C(=O)N[C@H](Cc2ccc(O)cc2)C(N)=O)NC1=O [metal not drawn]
≤ 0.1 %ID/g: blood | heart | muscle
